Measured values reported in patent US20250108038A1 (priority 2023, published 2025).

Tests used:
[1] = in vitro; conditions: for % Remaining / Aa/Ai Mean (N = 2) / T1/2: 2.0 μM; for T1/2: 60 min incubation
[2] = test system: Wistar rats; assay: Five Choice Serial Reaction Time Task, variable intertrial interval (vITI), acute; type: in vivo, Wistar rat; conditions: for % hit rate: Compound I-4 0.1-1.0 mg/kg ip, Compound I-19 0.03-1.0 mg/kg ip; for % correct / Magazine Head Entries / Omissions / number of trials completed / perseverative responses / premature responses / response latencies (correct, incorrect) / reward latencies / timeout responses: same doses
Experimental: Animals were trained in eight automated 5C-SRTT operant chambers (Med Associates, St. Albans, VT, USA), controlled by MedPC software (Med Associates). Briefly, each operant chamber was equipped with 5 apertures containing a photocell beam to detect nose pokes and a lamp (2.8 W) that could be illuminated randomly at varying durations. Food pellets (45 mg chow pellet, BioServ, Frenchtown, NJ, USA) were delivered automatically to a magazine, located on the opposite wall to the nose pokes, that was also equipped with a light that turned on to indicate that a pellet had been dispensed. The house-light remained on for the entire session unless an error or omission occurred. Training sessions began with the delivery of a food reward and retrieval triggered the first trial. […] Training began with the stimulus duration set at 10 sec, a limited hold period of 5 sec and an ITI of 5 sec. […] Sessions ended when 40 minutes had lapsed or 100 trials had been completed.
Upon meeting the performance criteria, animals were assessed in the vSD version of the task where the following stimulus durations were presented in a pseudorandom manner: 0.3, 0.6 and 0.9 sec. Later, subjects were assessed in the vITI version where 2.5, 5.0 and 10.0 sec ITIs were employed in a pseudorandom manner. Performance parameters measured were: % hit ((# correct/(# correct+# incorrect including omissions))×100); % correct ((# correct/(# correct+# incorrect excluding omissions))×100); premature responses (# of nose-pokes into any aperture after trial initiation but before onset of the stimulus light); timeout responses (# of nose pokes into any aperture during a timeout period), perseverative responses (# of nose pokes occurring after the correct response had been made but before reward collection); # of food magazine head entries, omissions and total trials completed. The latency to correct response (time taken from the onset of the nose poke light stimulus to making the correct nose poke response), latency to incorrect response (time taken from onset of nose poke light stimulus to making the incorrect nose poke response), and latency to reward (i.e., the magazine latency, time taken from making a correct nose poke response to retrieving the reward from the magazine) was also recorded.
Drug doses and vehicle were administered in a pseudorandom fashion. Drug or vehicle sessions were performed 1-2 times per week with maintenance training (behavioral testing without drug or vehicle injections) interspersed.
All data were collated and entered into Microsoft Excel spreadsheets. The data were subsequently imported into StatView 5.0 for statistical analyses. One and two factor analysis of variance (ANOVA) tests were used with repeated measures when indicated, followed by Fisher LSD or Student Newman Keuls as post-hoc tests. All results were expressed as the mean (±S.E.M.). Differences between means from experimental groups were considered significant at the p<0.05 level. The statistical F values and degrees of freedom associated with the two factor ANOVA analyses are provided in the text of this report. Please refer to the statistical reports in the appendices for the values associated with one factor ANOVAs for the overall means and overall total values.

[3] = molecular target: CYP2D6 (Homo sapiens, UniProt P10635); assay: in vitro; conditions: both, pH 7.4
[4] = molecular target: CYP3A4 (Homo sapiens, UniProt P08684); assay: in vitro; conditions: both, pH 7.4, Inhibition at Highest Test Article Concentration
[5] = molecular target: T1, CYP2B6 (Homo sapiens, UniProt P20813); assay: biochemical
T1 sequence (P20813 1-491): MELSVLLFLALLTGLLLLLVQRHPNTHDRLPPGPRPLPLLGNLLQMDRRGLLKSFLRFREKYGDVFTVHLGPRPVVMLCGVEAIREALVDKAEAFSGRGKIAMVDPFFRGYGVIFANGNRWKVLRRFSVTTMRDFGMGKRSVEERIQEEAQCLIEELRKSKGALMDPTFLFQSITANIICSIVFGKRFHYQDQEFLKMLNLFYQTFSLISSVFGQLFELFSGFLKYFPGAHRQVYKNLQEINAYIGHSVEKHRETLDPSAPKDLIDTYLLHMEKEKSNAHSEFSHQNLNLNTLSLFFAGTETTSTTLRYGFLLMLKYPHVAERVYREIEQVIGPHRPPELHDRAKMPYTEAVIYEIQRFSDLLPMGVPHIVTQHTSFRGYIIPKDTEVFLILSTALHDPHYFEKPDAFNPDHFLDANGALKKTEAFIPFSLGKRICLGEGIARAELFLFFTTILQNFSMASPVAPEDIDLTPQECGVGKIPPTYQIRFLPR

[6] = test system: C57BL/6 mice; assay: SmartCage locomotor activity monitoring; type: in vivo, mouse; conditions: 0.3, 1.0, 3.0 and 10 mg/kg, IP, 24 h

Sequence of CYP3A4 (P08684 whole entry): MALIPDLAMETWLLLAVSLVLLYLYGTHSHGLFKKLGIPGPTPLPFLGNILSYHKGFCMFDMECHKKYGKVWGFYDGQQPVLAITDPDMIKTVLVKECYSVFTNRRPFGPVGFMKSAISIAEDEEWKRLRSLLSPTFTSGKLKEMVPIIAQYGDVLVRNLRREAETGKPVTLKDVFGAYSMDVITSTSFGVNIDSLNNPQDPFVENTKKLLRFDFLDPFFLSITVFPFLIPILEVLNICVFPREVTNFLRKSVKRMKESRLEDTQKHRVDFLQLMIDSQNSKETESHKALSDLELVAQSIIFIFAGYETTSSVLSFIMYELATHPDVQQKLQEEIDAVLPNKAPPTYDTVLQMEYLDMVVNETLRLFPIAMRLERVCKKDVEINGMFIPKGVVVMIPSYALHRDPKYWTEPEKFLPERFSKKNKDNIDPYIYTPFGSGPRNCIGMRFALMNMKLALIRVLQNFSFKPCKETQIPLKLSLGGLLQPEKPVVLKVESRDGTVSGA
Sequence of CYP2D6 (P10635 whole entry): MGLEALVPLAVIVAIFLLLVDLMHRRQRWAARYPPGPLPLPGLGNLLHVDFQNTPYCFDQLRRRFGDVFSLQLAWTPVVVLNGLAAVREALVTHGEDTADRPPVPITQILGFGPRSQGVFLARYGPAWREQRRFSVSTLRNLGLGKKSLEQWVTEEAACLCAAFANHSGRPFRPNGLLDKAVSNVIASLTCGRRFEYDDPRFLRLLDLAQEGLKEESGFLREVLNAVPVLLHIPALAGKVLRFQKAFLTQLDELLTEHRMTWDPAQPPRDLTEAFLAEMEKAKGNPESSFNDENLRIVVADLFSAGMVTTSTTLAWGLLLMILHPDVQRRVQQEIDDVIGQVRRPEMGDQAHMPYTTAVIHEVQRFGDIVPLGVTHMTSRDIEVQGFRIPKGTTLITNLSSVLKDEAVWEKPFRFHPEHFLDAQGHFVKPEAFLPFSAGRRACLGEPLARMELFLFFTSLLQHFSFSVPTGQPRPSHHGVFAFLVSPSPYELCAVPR

Compound | Compound A formed (Aa/Ai) ([1]; 0 min) | % Remaining ([1]; 0 min) | Aa/Ai Mean (N = 2) ([1]; 0 min) | % Remaining ([1]; 5 min) | Aa/Ai Mean (N = 2) ([1]; 5 min) | % Remaining ([1]; 15 min) | Aa/Ai Mean (N = 2) ([1]; 15 min) | % Remaining ([1]; 30 min) | Aa/Ai Mean (N = 2) ([1]; 30 min) | % Remaining ([1]; 60 min) | Aa/Ai Mean (N = 2) ([1]; 60 min) | T1/2 [1] | Compound A formed (Aa/Ai) ([1]; 5 min) | Compound A formed (Aa/Ai) ([1]; 15 min) | Compound A formed (Aa/Ai) ([1]; 30 min) | Compound A formed (Aa/Ai) ([1]; 60 min) | % hit rate [2] | % correct [2] | Magazine Head Entries [2] | Omissions [2] | other results
COCCOC1(c2ccc(Cl)cc2)c2ccccc2C2=NCCN21 (stereo not drawn) [Compound I-4] | 0.57 | 100% | 3.25 | 95.0% | 3.08 | 99.6% | 3.23 | 90.8% | 2.95 | 83.6% | 2.72 | >3.12 h | 0.66 | 0.58 | 0.52 | 0.42 | modest decrease in the % hit rate | no statistically significant dose-related effects | decreases in the number of premature responses, timeout responses, and magazine head entries | increase in the number of omissions | number of trials completed [2]: the number of trials completed was not affected; perseverative responses [2]: no statistically significant effects on perseverative responses; premature responses [2]: decrease in the number of premature responses; response latencies (correct, incorrect) [2]: increases in the response and reward latencies; reward latencies [2]: increases in the response and reward latencies; timeout responses [2]: decreases in the number of premature responses, timeout responses, and magazine head entries
OC1(c2ccc(Cl)cc2)c2ccccc2C2=NCCN21 (stereo not drawn) [Compound A, 5-(4-chlorophenyl)-2,3-dihydroimidazo[1,2-b]isoindol-5-ol, reference compound] |  |  |  |  |  |  |  |  |  |  |  |  |  |  |  |  |  |  |  |  | inhibition at 10 µM [3]: 70.8%; inhibition at 10 µM ([4]; 3A4, Midazolam): 11.7%; inhibition at 10 µM ([4]; 3A4, Testosterone): 14%; IC50 [5]: 92 nM
Clc1ccc(C2(OCC3OCCO3)c3ccccc3C3=NCCN32)cc1 (stereo not drawn) [Compound I-19] | 0.60 | 100% | 1.62 | 99.1% | 1.61 | 98.2% | 1.59 | 92.8% | 1.50 | 79.6% | 1.29 | 2.97 h | 0.59 | 0.57 | 0.52 | 0.47 | modest decrease in the % hit rate | no statistically significant dose-related effects | decrease in the number of premature responses, timeout responses, and magazine head entries | increase in the number of omissions | number of trials completed [2]: not significantly affected; perseverative responses [2]: no statistically significant effects on perseverative responses; premature responses [2]: decreases in the number of premature responses; response latencies (correct, incorrect) [2]: modest increases in the response latencies; reward latencies [2]: not significantly affected; timeout responses [2]: decrease in the number of premature responses, timeout responses, and magazine head entries; home cage activity (activity, rearing, velocity, distance) [6]: no significant effect on the diurnal or nocturnal activity measures
